Laboratory results: patent US20020081661A1 (Synaptic Pharmaceutical Corporation, priority 1992, published 2002)
Read-outs that look alike come from different tables or passages of the source.

How the values were obtained:
[1] = molecular target: T1, human 5-HT4 receptor S10-95 (CG-17) (Homo sapiens, UniProt Q13639); test: [3H]5-HT displacement binding, human CG-17 clone
T1 construct: Isolation of the full length human S10-95 cDNA clone; expressed in transfected cells; host or cells: COS-7 (transient, DEAE-dextran)
T1 sequence (Q13639 whole entry): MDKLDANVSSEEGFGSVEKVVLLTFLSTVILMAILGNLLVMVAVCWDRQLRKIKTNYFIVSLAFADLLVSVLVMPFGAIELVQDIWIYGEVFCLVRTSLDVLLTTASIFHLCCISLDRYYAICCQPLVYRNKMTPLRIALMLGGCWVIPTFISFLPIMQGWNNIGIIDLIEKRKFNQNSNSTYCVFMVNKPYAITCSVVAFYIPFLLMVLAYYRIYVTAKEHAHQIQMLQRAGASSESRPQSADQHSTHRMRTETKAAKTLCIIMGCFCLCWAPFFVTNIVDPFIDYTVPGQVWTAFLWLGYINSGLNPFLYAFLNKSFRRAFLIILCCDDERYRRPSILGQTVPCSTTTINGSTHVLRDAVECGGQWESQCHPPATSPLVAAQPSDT
Method: (§2) Membrane Preparation: Membranes were prepared from transiently transfected COS-7 cells which were grown to 100% confluence. The cells were washed twice with phosphate-buffered saline, scraped from the culture dishes into 5 ml of ice-cold phosphate-buffered saline, and centrifuged at 200×g for 5 min at 4′. The pellet was resuspended in 2.5 ml of ice-cold Tris buffer (20 mM Tris -HCl, pH 7.4 at 23°, 5 mM EDTA), and homogenized by a Wheaton tissue grinder. The lysate was subsequently centrifuged at 200×g for 5 min at 4° to pellet large fragments which were discarded. The supernatant was collected and centrifuged at 40,000×g for 20 min at 4°. The pellet resulting from this centrifugation was washed once in ice-cold Tris wash buffer and finally resuspended in a final buffer containing 50 mM Tris-HCl and 0.5 mM EDTA, pH 7.4 at 23°. Membrane preparations were kept on ice and utilized within two hr for the radioligand binding assays.
(§3) The binding profile of drugs in competition experiments was established using 7 concentrations of compound. Incubation times were 30 min for both saturation and displacement studies. […] Binding was initiated by the addition of 50 μl membrane homogenates (10-20 μg). The reaction was terminated by rapid filtration through presoaked (0.5% polyethyleneimine) filters using 48R Cell Brandel Harvester (Gaithersburg, Md.). Subsequently, filters were washed for 5 sec with ice cold buffer (50 mM Tris HCL, pH 7.4 at 4° C.), dried and placed into vials containing 2.5 ml of Readi-Safe (Beckman, Fullerton, Calif.), and radioactivity was measured using a Beckman LS 6500C liquid scintillation counter. […] Binding data were analyzed by computer-assisted nonlinear regression analysis (Accufit and Accucomp, Lundon Software, Chagrin Falls, Ohio).

[2] = molecular target: T2, rat 5-HT4 (CG-7) receptor (Rattus norvegicus, UniProt Q62758); test: cAMP formation in intact Cos-7 cells transiently expressing CG-7; type: cell-based
T2 construct: two individual full length cDNA clones, S10-87 and S10-95, were isolated; expressed in transfected cells; host or cells: COS-7 (transient, DEAE-dextran)
T2 sequence (Q62758 1-387 isoform Q62758-2): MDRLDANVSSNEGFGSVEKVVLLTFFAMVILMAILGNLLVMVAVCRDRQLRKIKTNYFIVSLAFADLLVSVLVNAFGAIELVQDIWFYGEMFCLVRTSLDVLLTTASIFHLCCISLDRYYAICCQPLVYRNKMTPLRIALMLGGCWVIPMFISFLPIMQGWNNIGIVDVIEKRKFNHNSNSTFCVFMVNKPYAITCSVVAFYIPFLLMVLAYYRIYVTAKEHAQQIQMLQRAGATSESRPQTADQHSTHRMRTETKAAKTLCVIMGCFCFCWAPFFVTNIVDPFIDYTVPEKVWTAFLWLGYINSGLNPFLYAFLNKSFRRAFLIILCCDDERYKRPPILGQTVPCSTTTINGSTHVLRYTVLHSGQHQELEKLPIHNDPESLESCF
Method: (§1) Measurement of cAMP Formation: The transiently transfected Cos-7 cells were incubated in Dulbecco's modified Eagle's medium, 5 mM theophylline, 10 mM Hepes (4-[2-Hydroxyethyl]-1-piperazineethanesulfonic acid), 10 μM pargyline, and/or appropriate concentrations of antagonists for 20 minutes at 37° C., 5% CO2. […] The media was aspirated and the reaction stopped by the addition of 100 mM HCl. The plates were stored at 4° C. for 15 minutes, centrifuged for 5 minutes, 500×g to pellet cellular debris, and the supernatant aliquotted and stored at −20° C. prior to assessment of cAMP formation by radioimmunoassay (cAMP Radioimmunoassay kit, Advanced Magnetics, Cambridge, Mass.). Radioactivity was quantitated using a Packard COBRA Auto Gamma Counter equipped with data reduction software. Functional data was fitted to a four parameter logistic equation to obtain response parameters (EC50, Emax, nH; Inplot, GraphPad, San Diego, Calif.).

[3] = molecular target: T3, rat 5-HT4 (CG-8) receptor (Rattus norvegicus, UniProt Q62758); test: cAMP formation in intact Cos-7 cells transiently expressing CG-8; type: cell-based
T3 construct: two individual full length cDNA clones, S10-87 and S10-95, were isolated; expressed in transfected cells; host or cells: COS-7 (transient, DEAE-dextran)
T3 sequence (Q62758 whole entry): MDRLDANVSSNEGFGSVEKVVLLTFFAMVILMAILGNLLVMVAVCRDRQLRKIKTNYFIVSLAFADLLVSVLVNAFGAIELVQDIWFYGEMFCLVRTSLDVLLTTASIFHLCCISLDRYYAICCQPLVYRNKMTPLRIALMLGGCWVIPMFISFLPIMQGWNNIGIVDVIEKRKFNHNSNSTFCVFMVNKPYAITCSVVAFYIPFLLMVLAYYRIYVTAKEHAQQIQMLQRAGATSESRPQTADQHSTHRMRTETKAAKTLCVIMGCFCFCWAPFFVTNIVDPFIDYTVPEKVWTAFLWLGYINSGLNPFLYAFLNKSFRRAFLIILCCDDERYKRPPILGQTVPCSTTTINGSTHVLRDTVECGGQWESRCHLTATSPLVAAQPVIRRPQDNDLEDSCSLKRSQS
Method: as §1

[4] = molecular target: T4, rat 5-HT4 receptor S10-95 (CG-8) (Rattus norvegicus, UniProt Q62758)
T4 sequence (Q62758 whole entry): as above
Method: (§4) For transient expression, Cos-7 cells were transfected by the DEAE-Dextran method, using 1 μg of DNA /10^6 cells (Warden, D. and H. V. Thorne, 1968).
(§5) Membrane Preparation: Membranes were prepared from transiently transfected COS-7 cells which were grown to 100% confluence. The cells were washed twice with phosphate-buffered saline, scraped from the culture dishes into 5 ml of ice-cold phosphate-buffered saline, and centrifuged at 200×g for 5 min at 4′. The pellet was resuspended in 2.5 ml of ice-cold Tris buffer (20 mM Tris -HCl, pH 7.4 at 23°, 5 mM EDTA), and homogenized by a Wheaton tissue grinder. The lysate was subsequently centrifuged at 200×g for 5 min at 4° to pellet large fragments which were discarded. The supernatant was collected and centrifuged at 40,000×g for 20 min at 4°. The pellet resulting from this centrifugation was washed once in ice-cold Tris wash buffer and finally resuspended in a final buffer containing 50 mM Tris-HCl and 0.5 mM EDTA, pH 7.4 at 23°. Membrane preparations were kept on ice and utilized within two hr for the radioligand binding assays. Protein concentrations were determined by the method of Bradford (1976) using bovine serum albumin as the standard.
(§6) The binding profile of drugs in competition experiments was established using 7 concentrations of compound. Incubation times were 30 min for both saturation and displacement studies. […] Binding was initiated by the addition of 50 μl membrane homogenates (10-20 μg). The reaction was terminated by rapid filtration through presoaked (0.5% polyethyleneimine) filters using 48R Cell Brandel Harvester (Gaithersburg, Md.). Subsequently, filters were washed for 5 sec with ice cold buffer (50 mM Tris HCL, pH 7.4 at 4° C.), dried and placed into vials containing 2.5 ml of Readi-Safe (Beckman, Fullerton, Calif.), and radioactivity was measured using a Beckman LS 6500C liquid scintillation counter. […] Binding data were analyzed by computer-assisted nonlinear regression analysis (Accufit and Accucomp, Lundon Software, Chagrin Falls, Ohio). […]

[5] = molecular target: T4, rat 5-HT4 receptor S10-95 (CG-8); test: [3H]5-HT radioligand binding (displacement), membranes of Cos-7 cells transiently expressing rat S10-95 (CG-8); settings: read-out: K1; CG-8, binding data using [3H]5-HT, Table 4
Method: as §4, §5, §6

[6] = molecular target: T5, rat 5-HT4 receptor S10-87 (CG-7) (Rattus norvegicus, UniProt Q62758); test: [3H]5-HT radioligand binding (saturation and displacement), membranes of Cos-7 cells transiently expressing rat S10-87 (CG-7)
T5 sequence (Q62758 1-387 isoform Q62758-2): as the sequence (Q62758 1-387 isoform Q62758-2) above
Method: as §2, §3

[7] = molecular target: T5, rat 5-HT4 receptor S10-87 (CG-7); test: [3H]GR113808 binding (saturation and displacement), COS-7 membranes, rat clone CG-7; set-up: two individual full length cDNA clones, S10-87 and S10-95, were isolated; expressed in transfected cells; host or cells: COS-7 (transient, DEAE-dextran)
Method: as §2
(§7) The binding profile of drugs in competition experiments was established using 10-12 concentrations of compound. Incubation times were 30 min for both saturation and displacement studies.

[8] = molecular target: T4, rat 5-HT4 receptor S10-95 (CG-8); test: [3H]GR113808 binding (saturation and displacement), COS-7 membranes, rat clone CG-8; set-up: two individual full length cDNA clones, S10-87 and S10-95, were isolated; expressed in transfected cells; host or cells: COS-7 (transient, DEAE-dextran)
Method: as §2, §7

## COc1cc(N)c(Cl)cc1C(=O)NC1CN2CCC1CC2 (stereo not drawn) [Zacopride, zacopride]
[1]; human CG-17 compared with rat clones
  fold higher affinity for the human CG-17 clone: about 7 fold
[1]; read-out: Ki
  Ki: 17 nM
[2]; CG-7, cAMP response
  agonist / antagonist character: partial agonists
[2]; CG-7, maximum response normalized to 5-HT maximum = 1.0
  I. A. (intrinsic activity): 1.1
[2]; CG-7, stimulation of adenylate cyclase
  fold lower affinity than cisapride: ~15 fold
[2]; CG-7, stimulation of basal cAMP release
  times less potent than 5-HT: ~100 fold
[2]; CG-7, stimulation of basal cAMP release, means ± S.E.M. of three experiments, read-out: EC50
  EC50: 2740 nM
[3]; CG-8, cAMP response
  agonist / antagonist character: partial agonists
[3]; CG-8, maximum response normalized to 5-HT maximum = 1.0
  I. A. (intrinsic activity): 1.0
[3]; CG-8, stimulation of basal cAMP release, means ± S.E.M. of three experiments, read-out: EC50
  EC50: 239 ± 33 nM
[4]
  Ki: 136 ± 5 nM
[5]
  Ki: 136 ± 5 nM
[6]
  Ki: 130 ± 10 nM
[6]; K1 (nM), CG-7, binding data using [3H]5-HT, Table 4
  Ki: 130 ± 10 nM
[7]; CG-7, 0.2-0.4 nM [3H]GR113808, single experiment, read-out: Affinity estimate K1
  Ki: 729 nM
[7]; CG-7, [3H]GR113808
  BH (percentage of high affinity sites): 68%
  nH (Hill coefficient): nH = 0.80
[7]; CG-7, [3H]GR113808, read-out: KH (affinity for the high affinity state)
  Ki: 424 nM
[7]; CG-7, [3H]GR113808, read-out: KL (affinity for the low affinity state)
  Ki: 2760 nM
[8]; CG-8, 0.2-0.4 nM [3H]GR113808, single experiment, read-out: Affinity estimate K1
  Ki: 820 nM
[8]; CG-8, [3H]GR113808
  nH (Hill coefficient): nH = 0.85
